# Assay results: PMC7071059, “Targeting Receptor Tyrosine Kinase VEGFR-2 in Hepatocellular Cancer: Rational Design, Synthesis and Biological Evaluation of 1,2-Disubstituted Benzimidazoles” (Molecules, 2020)
# Assays:
# Assay in all cases: NCI 60 one dose (10 μM) anticancer assay
# Format in all cases: cell-based
# [1] = system: HCT-116; conditions: Homo sapiens, 10 µM one dose, Colon Cancer, read-out: Growth Inhibition % HCT-116
# Procedure: (§1) Some of the synthesized compounds were selected by the NCI, Bethesda, MD, USA for evaluation of their anticancer activity. An in vitro one dose (10 μM) anticancer assay was conducted on a full NCI 60-cell line panel derived from 9 different cancer types. Table 2 presents the percent of growth inhibition of some cell lines. […] K-562 and MOLT-4 from leukemia, NCI-H522 from non-small cell lung cancer, HCT-116 from colon cancer, SK-MEL-5 and UACC-62 from melanoma, UO-31 from renal cancer, PC-3 from prostate cancer and HS 578T and T-47D from breast cancer are the most sensitive cell lines to the tested compounds. No growth inhibition was observed from the selected compounds against COLO205, HCC-2998, MALME-3M, SK-MEL-28, DU-145 and BT-549 cell lines. […] Against UO-31 from renal cancer and PC-3 from prostate cancer, it inhibited the growth of 44% and 58% of the cancer cells, respectively.
# [2] = system: K-562; conditions: Homo sapiens, K562; 10 µM one dose; Leukemia; read-out: Growth Inhibition % K-562
# Procedure: as §1
# [3] = system: HL-60(TB); conditions: Homo sapiens, 10 µM one dose, Leukemia, read-out: Growth Inhibition % HL-60(TB)
# Procedure: as §1
# [4] = system: SNB-19; conditions: Homo sapiens, 10 µM one dose, CNS Cancer, read-out: Growth Inhibition % SNB-19
# Procedure: as §1
# [5] = system: SK-MEL-5; conditions: Homo sapiens, 10 µM one dose, Melanoma, read-out: Growth Inhibition % SK-MEL-5
# Procedure: as §1
# [6] = system: EKVX; conditions: Homo sapiens, 10 µM one dose, Non-small cell lung Cancer, read-out: Growth Inhibition % EKVX
# Procedure: as §1
# [7] = system: MDA-MB-435; conditions: Homo sapiens, 10 µM one dose, Melanoma, read-out: Growth Inhibition % MDA-MB-435
# Procedure: as §1
# [8] = system: HT29; conditions: Homo sapiens, HT-29; 10 µM one dose; Colon Cancer; read-out: Growth Inhibition % HT29
# Procedure: as §1
# [9] = system: TK-10; conditions: Homo sapiens, 10 µM one dose, Renal Cancer, read-out: Growth Inhibition % TK-10
# Procedure: as §1
# [10] = system: NCI-H23; conditions: Homo sapiens, 10 µM one dose, Non-small cell lung Cancer, read-out: Growth Inhibition % NCI-H23
# Procedure: as §1
# [11] = system: MCF7; conditions: Homo sapiens, 10 µM one dose, Breast Cancer, read-out: Growth Inhibition % MCF7
# Procedure: as §1
# [12] = system: MDA-MB-468; conditions: Homo sapiens, 10 µM one dose, Breast Cancer, read-out: Growth Inhibition % MDA-MB-468
# Procedure: as §1
# [13] = system: NCI/ADR-RES; conditions: Homo sapiens, 10 µM one dose, Ovarian Cancer, read-out: Growth Inhibition % NCI/ADR-RES
# Procedure: as §1
# [14] = system: NCI-H522; conditions: Homo sapiens, 10 µM one dose, Non-small cell lung Cancer, read-out: Growth Inhibition % NCI-H522
# Procedure: as §1
# [15] = system: UO-31; conditions: Homo sapiens, 10 µM one dose, Renal Cancer, read-out: Growth Inhibition % UO-31
# Procedure: as §1
# [16] = system: OVCAR-4; conditions: Homo sapiens, 10 µM one dose, Ovarian Cancer, read-out: Growth Inhibition % OVCAR-4
# Procedure: as §1
# [17] = system: NCI-H322M; conditions: Homo sapiens, 10 µM one dose, Non-small cell lung Cancer, read-out: Growth Inhibition % NCI-H322M
# Procedure: as §1
# [18] = system: LOX IMVI; conditions: Homo sapiens, 10 µM one dose, Melanoma, read-out: Growth Inhibition % LOX IMVI
# Procedure: as §1
# [19] = system: OVCAR-5; conditions: Homo sapiens, 10 µM one dose, Ovarian Cancer, read-out: Growth Inhibition % OVCAR-5
# Procedure: as §1
# [20] = system: MDA-MB-231/ATTC; conditions: Homo sapiens, 10 µM one dose, Breast Cancer, read-out: Growth Inhibition % MDA-MB-231/ATTC
# Procedure: as §1
# [21] = system: A549/ATTC; conditions: Homo sapiens, 10 µM one dose, Non-small cell lung Cancer, read-out: Growth Inhibition % A549/ATTC
# Procedure: as §1
# [22] = system: SF-268; conditions: Homo sapiens, 10 µM one dose, CNS Cancer, read-out: Growth Inhibition % SF-268
# Procedure: as §1
# [23] = system: T-47D; conditions: Homo sapiens, T47D; 10 µM one dose; Breast Cancer; read-out: Growth Inhibition % T-47D
# Procedure: as §1
# [24] = system: BT-549; conditions: Homo sapiens, 10 µM one dose, Breast Cancer, read-out: Growth Inhibition % BT-549
# Procedure: as §1
# [25] = system: KM12; conditions: Homo sapiens, 10 µM one dose, Colon Cancer, read-out: Growth Inhibition % KM12
# Procedure: as §1
# [26] = system: HS 578T; conditions: Homo sapiens, 10 µM one dose, Breast Cancer, read-out: Growth Inhibition % HS 578T
# Procedure: as §1
# [27] = system: U251; conditions: Homo sapiens, U-251; 10 µM one dose; CNS Cancer; read-out: Growth Inhibition % U251
# Procedure: as §1
# [28] = system: M14; conditions: Homo sapiens, 10 µM one dose, Melanoma, read-out: Growth Inhibition % M14
# Procedure: as §1
# [29] = system: A498; conditions: Homo sapiens, 10 µM one dose, Renal Cancer, read-out: Growth Inhibition % A498
# Procedure: as §1
# [30] = system: SR; conditions: Homo sapiens, 10 µM one dose, Leukemia, read-out: Growth Inhibition % SR
# Procedure: as §1
Compound,inhibition at 10 µM [1],inhibition at 10 µM [2],inhibition at 10 µM [3],inhibition at 10 µM [4],inhibition at 10 µM [5],inhibition at 10 µM [6],inhibition at 10 µM [7],inhibition at 10 µM [8],inhibition at 10 µM [9],inhibition at 10 µM [10],inhibition at 10 µM [11],inhibition at 10 µM [12],inhibition at 10 µM [13],inhibition at 10 µM [14],inhibition at 10 µM [15],inhibition at 10 µM [17],inhibition at 10 µM [18],inhibition at 10 µM [19],inhibition at 10 µM [20],inhibition at 10 µM [21],other results
"C/C(=N\NC(=O)Cn1c(C(C)C)nc2ccccc21)c1ccccc1 [Compound 14a, (E)-2-(2-Isopropyl-1H-benzo[d]imidazol-1-yl)-N′-(1-phenylethylidene)acetohydrazide]",< 10%,< 10%,< 10%,< 10%,< 10%,< 10%,< 10%,< 10%,< 10%,< 10%,< 10%,29%,< 10%,< 10%,< 10%,< 10%,< 10%,21%,< 10%,< 10%,inhibition at 10 µM [16]: < 10%; inhibition at 10 µM [22]: < 10%; inhibition at 10 µM [23]: < 10%; inhibition at 10 µM [24]: < 10%; inhibition at 10 µM [25]: < 10%; inhibition at 10 µM [26]: 24%; inhibition at 10 µM [27]: < 10%; inhibition at 10 µM [28]: < 10%; inhibition at 10 µM [29]: 49%
"CC(C)c1nc2ccccc2n1CC(=O)N/N=C/c1cccc(OCc2ccccc2)c1 [Compound 17a, (E)-N′-(3-(Benzyloxy)benzylidene)-2-(2-isopropyl-1H-benzo[d]imidazol-1-yl)acetohydrazide]",66%,57%,32%,22%,50%,21%,< 10%,< 10%,< 10%,39%,< 10%,47%,< 10%,33%,44%,< 10%,< 10%,< 10%,25%,16%,inhibition at 10 µM [16]: < 10%; inhibition at 10 µM [30]: 64%; inhibition at 10 µM [22]: < 10%; inhibition at 10 µM [23]: 32%; inhibition at 10 µM [24]: 28%; inhibition at 10 µM [25]: < 10%; inhibition at 10 µM [26]: 20%; inhibition at 10 µM [27]: < 10%; inhibition at 10 µM [28]: 16%; inhibition at 10 µM [29]: 17%
"Cc1ccc(-c2nc3ccccc3n2CC(=O)N/N=C/c2cccc(OCc3ccccc3)c2)o1 [Compound 17b, (E)-N′-(3-(Benzyloxy)benzylidene)-2-(2-(5-methylfuran-2-yl)-1H-benzo[d]imidazol-1-yl)acetohydrazide]",32%,54%,50%,21%,33%,43%,21%,29%,10%,14%,48%,20%,29%,28%,57%,21%,23%,14%,25%,42%,inhibition at 10 µM [16]: 21%; inhibition at 10 µM [30]: 25%; inhibition at 10 µM [22]: 37%; inhibition at 10 µM [23]: 49%; inhibition at 10 µM [24]: < 10%; inhibition at 10 µM [25]: 23%; inhibition at 10 µM [26]: 25%; inhibition at 10 µM [27]: 36%; inhibition at 10 µM [28]: 24%; inhibition at 10 µM [29]: 16%
"CC(C)c1nc2ccccc2n1CC(=O)N/N=C/c1ccc(OCc2ccccc2)cc1 [Compound 17c, (E)-N′-(4-(Benzyloxy)benzylidene)-2-(2-isopropyl-1H-benzo[d]imidazol-1-yl)acetohydrazide]",18%,28%,< 10%,< 10%,< 10%,< 10%,< 10%,< 10%,< 10%,< 10%,< 10%,< 10%,< 10%,26%,28%,< 10%,< 10%,< 10%,< 10%,< 10%,inhibition at 10 µM [30]: < 10%; inhibition at 10 µM [22]: < 10%; inhibition at 10 µM [23]: 24%; inhibition at 10 µM [24]: < 10%; inhibition at 10 µM [25]: < 10%; inhibition at 10 µM [26]: 16%; inhibition at 10 µM [27]: < 10%; inhibition at 10 µM [28]: < 10%; inhibition at 10 µM [29]: < 10%
"Cc1ccc(-c2nc3ccccc3n2CC(=O)N/N=C/c2ccc(OCc3ccccc3)cc2)o1 [Compound 17d, (E)-N′-(4-(Benzyloxy)benzylidene)-2-(2-(5-methylfuran-2-yl)-1H-benzo[d]imidazol-1-yl)acetohydrazide]",< 10%,41%,19%,< 10%,15%,21%,< 10%,< 10%,< 10%,< 10%,19%,< 10%,< 10%,27%,30%,20%,17%,< 10%,18%,23%,inhibition at 10 µM [16]: < 10%; inhibition at 10 µM [30]: 16%; inhibition at 10 µM [22]: 23%; inhibition at 10 µM [23]: 31%; inhibition at 10 µM [24]: < 10%; inhibition at 10 µM [25]: < 10%; inhibition at 10 µM [26]: 32%; inhibition at 10 µM [27]: < 10%; inhibition at 10 µM [28]: < 10%; inhibition at 10 µM [29]: 17%
